# From patent US10028992B2, “Methods of treating muscular dystrophy” (BOARD OF REGENTS OF THE NEVADA SYSTEM OF HIGHER EDUCATION …, priority 2012, dated 2018)
# “And” between values parts separate entries of the source, which are not always exact repeats. Equal entries are not always repeated.
# System: α7 integrin promoter
# Assay: muscle cell-based assay: α7βgal+/− myoblasts/myotubes, LacZ reporter, β-galactosidase cleavage of FDG
# Set-up: species or system mouse
# Settings: Myotubes; for Results in a α7+/− β-galactosidase assay, Myotubes, 0.5 uM: compound at 0.5 uM; for Results in a α7+/− β-galactosidase assay, Myotubes, 1 uM: compound at 1 uM; for Results in a α7+/− β-galactosidase assay, Myotubes, 5 uM: compound at 5 uM; for Results in a α7+/− β-galactosidase assay, Myotubes, 10 uM: compound at 10 uM; for Results in a α7+/− β-galactosidase assay, Myotubes, 20 uM: compound at 20 uM; for Results in a α7+/− β-galactosidase assay, Myotubes, 40 uM: compound at 40 uM
# Summary of the method: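 Primary α7βgal+/− mouse myoblasts (LacZ knocked into α7 integrin exon 1, promoter retained), differentiated; promoter activity read as β-galactosidase conversion of non-fluorescent FDG to fluorescein. Hits followed by dose-response, western analysis and myostatin counterscreen.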
SMILES,"Results in a α7+/− β-galactosidase assay, Myotubes, 0.5 uM","Results in a α7+/− β-galactosidase assay, Myotubes, 1 uM","Results in a α7+/− β-galactosidase assay, Myotubes, 5 uM","Results in a α7+/− β-galactosidase assay, Myotubes, 10 uM","Results in a α7+/− β-galactosidase assay, Myotubes, 20 uM","Results in a α7+/− β-galactosidase assay, Myotubes, 40 uM"
N#C/C(=C1/C(=O)Nc2ccc(Br)cc21)c1ccccn1 [drawing 359],0.2651,0.03214,−0.1525,−0.1528,−0.2624,−0.2931
N#CC1=C2SCN(c3ccccc3)CN2C(=O)CC1c1cccs1 (stereo not shown) [drawing 360],0.09082,0.1158,−0.0988,−0.03259,−0.2578,−0.3783
COc1ccc(C(=O)/C=C2\C(=O)Nc3ccccc32)cc1 [drawing 361],0.1208,0.06821,−0.04505,−0.256,−0.3122,−0.5124
O=C(O)c1csc(-c2cccs2)n1 [drawing 362],0.2703,0.2837,0.2451,−0.02819,−0.1366,−0.1007
COc1cccc(C(=O)COc2ccc3ccc(=O)oc3c2)c1 [drawing 363],0.3069,0.2317,0.07669,0.03997,−0.3325,−0.3127
CCCS(=O)(=O)c1nc(S(=O)(=O)c2ccc(C)cc2)c(N2CCCC2)s1 [drawing 364],0.01021,0.05992,−0.01197,−0.0108,−0.2345,−0.3321
OC(c1nc2cc(F)ccc2[nH]1)C(O)c1nc2cc(F)ccc2[nH]1 (stereo not shown) [drawing 365],0.0667,0.1032,0.2081,0.01319,−0.09026,−0.08066
COc1ccc(OC)c(NC(=O)CN2CCC(NC(=O)c3ccccc3C)CC2)c1 [drawing 366],0.003237,0.04584,−0.09583,−0.1153,−0.1579,−0.08927
O=C(CCc1ccccc1)c1nnc(-c2ccccc2)o1 [drawing 367],0.117,0.1296,−0.09921,−0.1418,−0.1125,0.05525
COc1ccc(/N=N/c2ccc(N)nc2N)cc1 [drawing 368],0.1561,0.1699,−0.00041,−0.06379,−0.1224,−0.03271
N=C(NOC(=O)c1cccc(C(F)(F)F)c1)c1cnccn1 [drawing 369],0.07542,0.07664,−0.08801,−0.1676,−0.1858,−0.1541
CCOc1ccc2nc(Cl)sc2c1 [drawing 370],−0.00103,0.001963,−0.02718,−0.04332,−0.1345,−0.219
COc1ccc(CNC(=O)C2CCCN(S(=O)(=O)c3c(C)noc3/C=C/N(C)C)C2)cc1 (stereo not shown) [drawing 371],0.1862,0.2675,−0.1068,−0.1252,−0.1996,−0.2682
CC(O)CNc1nc2c(c(=O)n(Cc3ccc(Br)cc3)c(=O)n2C)n1C (stereo not shown) [drawing 372],0.1594,0.164,−0.05597,−0.08357,−0.2604,−0.369
COc1ccc(Cl)cc1NC(=O)c1cc(-c2cc(C)ccc2O)[nH]n1 [drawing 373],0.00543,0.04041,−0.08884,−0.1274,−0.1168,−0.2232
CCC(C)C(CC)NC(=O)CSc1nnc(COc2ccc(Cl)cc2)o1 (stereo not shown) [drawing 374],0.09087,0.07758,−0.09861,−0.1776,−0.01998,−0.2485
N#Cc1ccc(Sc2nc3ccccc3[nH]2)cc1C#N [drawing 376],0.09647,0.1219,0.01154,−0.06084,−0.00606,−0.1145
COc1cc(/C=C/CN2CCN(Cc3ccc(C)o3)C(CCO)C2)ccc1O (stereo not shown) [drawing 377],,0.1027 and 0.08207,,,,
COc1ccccc1C(=O)OCc1ccc2sc(C)nc2c1 [drawing 378],−0.04468,0.06534,0.05342,−0.1134,−0.02544,−0.1114
NC(=O)COc1ccc(C(=O)/C=C2\C(=O)Nc3ccccc32)cc1 [drawing 379],0.04116,0.06227,0.08579,−0.1303,−0.2553,−0.6822
CC1(C)Cc2ccccc2-c2nc3n(c(=O)c21)CCS3 [drawing 380],0.09354,0.08602,−0.04079,−0.05719,−0.329,−0.421
CN(/C(=N/S(=O)(=O)c1cccs1)c1ccccc1)c1ccccc1 [drawing 381],−0.07971,0.1809,0.01531,−0.02849,0.1022,−0.209
CSc1ccc(S(=O)(=O)NCc2ccccc2)cc1 [drawing 382],−0.1565,−0.2515,0.02007,0.1738,−0.1735,−0.07044
O=C1Nc2ccccc2/C1=C/c1ccccc1F [drawing 383],−0.06236,−0.04077,−0.1089,0.02646,−0.3381,−0.4226
CN1C(=O)/C(=C(/C#N)c2nc3ccccc3[nH]2)c2ccccc21 [drawing 384],−0.07617,−0.02413,−0.1571,0.1257,−0.2111,−0.2699
CC1CC(C)(C)N=C(S)N1CC(=O)N(C)Cc1ccccc1 (stereo not shown) [drawing 385],0.02464,−0.02121,−0.03109,0.2144,−0.02703,0.0594
